Data as given in patent US20240376051A1, “CRYSTALLINE FORM OF PYRROLE AMIDE COMPOUND, PREPARATION METHOD THEREFOR AND USE THEREOF” (SUNSHINE LAKE PHARMA CO., LTD., priority 2021, published 2024).
Where two headings read alike, the source gives them in different places. One block for each compound: values may come before it.

Tests used:
[1] = Pharmacokinetic experiment, oral capsule in Beagle dogs; type: in vivo; conditions: 5 mg/kg; for AUClast / Cmax / Tmax: male Beagle dogs
Procedure: The crystalline form I prepared by referring to any method of Example 2 was filled into capsules, which are used for oral administration.
8-12 kg Male Beagle dogs were divided into 2 groups, and 3 in each group. Each Beagle dog was orally administered the capsule containing the test sample at a dose of 5 mg/kg, and blood was collected at time points of 0.25, 0.5, 1.0, 2.0, 4.0, 6.0, 8.0 and 24 hours. Standard curve was plotted based on concentrations of the samples in a suitable range, the concentration of the test sample in the plasma sample was measured and quantified by AB SCIEX API4000 LC-MS/MS at MRM mode. Pharmacokinetic parameters were calculated according to drug concentration-time curve using a noncompartmental method by WinNonLin 6.3 software.
A pharmacokinetic experiment of the amorphous form prepared with reference to Example 1 was carried out according to the above method, and the results are shown in Table 1.

[2] = Stability experiment: high temperature test; type: physicochemical; conditions: for Appearance / Total impurity %: 60°C±2°C; for Total impurity %: HPLC
Procedure: (§1) Test samples: crystalline form I was prepared by referring to any method of Example 2, and amorphous form was prepared by referring to Example 1.
The following tests of test samples were carried out: • (1) High temperature test: an appropriate amount of the test sample was taken into a flat weighing bottle, spread into a thin layer with a thickness of ≤5 mm. The samples were placed at 60° C.±2° C. for 30 days. The samples were taken for testing according to the key stability inspection items on the 5th, 10th, and 30th day. The color change of the samples was observed. The purity of the samples was determined by HPLC.

[3] = Stability experiment: high humidity test; type: physicochemical; conditions: for Appearance / Total impurity %: 25°C, RH 90%±5%; for Total impurity %: HPLC
Procedure: as §1
• (2) High humidity test: an appropriate amount of the test sample was taken into a flat weighing bottle, spread into a thin layer with a thickness of ≤5 mm. The samples were placed at 25° C. and RH for 90%±5% for 30 days. The samples were taken for testing according to the key stability inspection items on the 5th, 10th, and 30th day. The color change of the samples was observed. The purity of the samples was determined by HPLC.

[4] = Stability experiment: light test; type: physicochemical; conditions: for Appearance / Total impurity %: 25°C, white light 4990 lux; for Total impurity %: HPLC
Procedure: as §1
• (3) Light test: an appropriate amount of the test sample was taken into a flat weighing bottle, spread into a thin layer with a thickness of ≤5 mm. The samples were placed in a light box (with a UV lamp) and placed under the conditions of 25° C., white light 4990 lux, and UV 1.4 W·h/m^2 for 30 days. The samples were taken for testing on the 5th, 10th, and 30th day. The color change of the samples was observed. The purity of the samples was determined by HPLC.

[5] = Hygroscopicity experiment (dynamic moisture adsorption, DVS); type: physicochemical; conditions: for The hygroscopicity feature: Chinese Pharmacopoeia 2020 definition, 25°C±1°C, 80%±2% relative humidity; for Weight gain at 60% relative humidity/% / Weight gain at 80% relative humidity/% / Weight gain at 95% relative humidity/%: DVS, 25°C
Procedure: The hygroscopicity of the present invention was measured by a DVS INT-Std dynamic moisture and gas adsorption analyzer from Surface Measurement Systems, UK. The humidity test range: 0%-95%, air flow: 200 mL/min, temperature: 25° C., test point: every 5% increase in humidity to take a test point.
Test samples: crystalline form I prepared by referring to any method of Example 2, and amorphous form prepared by referring to Example 1.
An appropriate amount of the test sample was taken, and the hygroscopicity was tested by a dynamic moisture adsorption device. The description of the hygroscopicity feature and the definition of the hygroscopicity gain (Chinese Pharmacopoeia 2020 edition. Appendix 9103 Guidelines for drug dampness test, experimental, conditions: 25° C.±1° C. 80%±2% relative humidity) as described in Table 6 below: […]

[6] = Stability experiment: accelerated test; type: physicochemical; conditions: for Total impurity % / Appearance: 40±2°C/75%±5% RH; for Total impurity %: HPLC; for Appearance: PE package plus aluminum foil
Procedure: as §1
• (4) Accelerated test: an appropriate amount of crystalline form I test samples in a single-layer PE package plus aluminum foil packaging was stored for 6 months under the conditions of 40±2° C./75%±5% RH. Samples were taken for testing in the 1st, 2nd, 3rd and 6th month. The color change of the samples was observed. The purity of the samples was determined by HPLC.

AUClast [1]: 20900 ng·h/mL
Cmax [1]: 913 ng/mL
Tmax [1]: 3.33 h
Appearance ([2]; 0 day): Off-white
Total impurity % ([2]; 0 day): 0.40%
Appearance ([2]; 5 days): Off-white
Total impurity % ([2]; 5 days): 0.46%
Appearance ([2]; 10 days): Off-white
Total impurity % ([2]; 10 days): 0.55%
Appearance ([2]; 30 days): Off-white
Total impurity % ([2]; 30 days): 1.28%
Appearance ([3]; 0 day): Off-white
Total impurity % ([3]; 0 day): 0.40%
Appearance ([3]; 5 days): Off-white
Total impurity % ([3]; 5 days): 0.47%
Appearance ([3]; 10 days): Off-white
Total impurity % ([3]; 10 days): 0.53%
Appearance ([3]; 30 days): Off-white
Total impurity % ([3]; 30 days): 0.57%
Appearance ([4]; UV 1.4 W·h/m^2, 0 day): Off-white
Total impurity % ([4]; UV 1.4 W·h/m^2, 0 day): 0.40%
Total impurity % ([4]; UV 1.4 W·h/m^2, 5 days): 0.85%
Total impurity % ([4]; UV 1.4 W·h/m^2, 10 days): 1.79%
Total impurity % ([4]; UV 1.4 W·h/m^2, 30 days): 3.47%
The hygroscopicity feature [5]: slight hygroscopicity
Weight gain at 60% relative humidity/% [5]: 1.401%
Weight gain at 80% relative humidity/% [5]: 1.826%
Weight gain at 95% relative humidity/% [5]: 2.707%
Structure (SMILES): Cc1c(C(=O)Nc2ccc(S(C)(=O)=O)c(F)c2)cn(CCO)c1-c1ccccc1C(F)(F)F [Amorphous form, (S)-1-(2-hydroxyethyl)-4-methyl-N-(3-fluoro-4-(methylsulfonyl)phenyl)-5-(2-(trifluoromethyl)phenyl)-1H-pyrrole-3-carboxamide]

AUClast [1]: 42300 ng·h/mL
Cmax ([1]; male, Beagle, dog, plasma, po, read-out: Cmax): 1450 ng/mL
Tmax ([1]; male, Beagle, dog, plasma, po, read-out: Tmax): 4 h
Appearance ([2]; 0 day): White
Total impurity % ([2]; 0 day): 0.34%
Appearance ([2]; 5 days): White
Total impurity % ([2]; 5 days): 0.36%
Appearance ([2]; 10 days): White
Total impurity % ([2]; 10 days): 0.34%
Appearance ([2]; 30 days): White
Total impurity % ([2]; 30 days): 0.34%
change of appearance and purity ([2]; high temperature (60°C), 30 days): no obvious changes
Appearance ([3]; 0 day): White
Total impurity % ([3]; 0 day): 0.34%
Appearance ([3]; 5 days): White
Total impurity % ([3]; 5 days): 0.35%
Appearance ([3]; 10 days): White
Total impurity % ([3]; 10 days): 0.36%
Appearance ([3]; 30 days): White
Total impurity % ([3]; 30 days): 0.34%
change of appearance and purity ([3]; high humidity (25°C, RH 90%±5%), 30 days): no obvious changes
Appearance ([4]; UV 1.4 W·h/m^2, 0 day): White
Total impurity % ([4]; UV 1.4 W·h/m^2, 0 day): 0.34%
Appearance ([4]; UV 1.4 W·h/m^2, 5 days): White
Total impurity % ([4]; UV 1.4 W·h/m^2, 5 days): 0.34%
Appearance ([4]; UV 1.4 W·h/m^2, 10 days): White
Total impurity % ([4]; UV 1.4 W·h/m^2, 10 days): 0.32%
Appearance ([4]; UV 1.4 W·h/m^2, 30 days): White
Total impurity % ([4]; UV 1.4 W·h/m^2, 30 days): 0.49%
change of appearance and purity ([4]; light, 30 days): no obvious changes
Total impurity % ([6]; 0 day): 0.78%
Total impurity % ([6]; 1 month): 0.72%
Total impurity % ([6]; 2 months): 0.73%
Total impurity % ([6]; 3 months): 0.73%
Total impurity % ([6]; 6 months): 0.71%
Appearance ([6]; 0 day): White
Appearance ([6]; 1 month): White
Appearance ([6]; 2 months): White
Appearance ([6]; 3 months): White
Appearance ([6]; 6 months): White
change of appearance and purity ([6]; accelerated test conditions, 6 months): do not change significantly
The hygroscopicity feature [5]: no or almost no hygroscopicity
Weight gain at 60% relative humidity/% [5]: 0.120%
Weight gain at 80% relative humidity/% [5]: 0.185%
Weight gain at 95% relative humidity/% [5]: 0.304%
Structure (SMILES): Cc1c(C(=O)Nc2ccc(S(C)(=O)=O)c(F)c2)cn(CCO)c1-c1ccccc1C(F)(F)F [Crystalline form I, (S)-1-(2-hydroxyethyl)-4-methyl-N-(3-fluoro-4-(methylsulfonyl)phenyl)-5-(2-(trifluoromethyl)phenyl)-1H-pyrrole-3-carboxamide]
exposure and blood drug concentration compared with the amorphous form ([1]; Beagle dogs): higher exposure and blood drug concentration than the amorphous form
